According to US20110065663A1, “ANTI-CANCER COMBINATION THERAPY” (Katholieke Universiteit Leuven, K.U. Leuven R&D, priority 2008, published 2011):
Like-named read-outs stand apart in the source and are kept apart here.

Columns and labels:
MCF-7/HYOR cells = assay: Tumor cell proliferation assay, M. hyorhinis-infected MCF-7 cells; format: cell-based, human; conditions: for Ratio (1)/(2) MCF-7/HYOR: IC50 in the absence of TPi to IC50 in the presence of TPi
Description: Mycoplasma hyorhinis (ATCC 17981) was obtained from the American Type Culture Collection (ATCC, Manassas, Va.). The freeze-dried bacteria were reconstituted by adding 1 ml of DMEM. […] The co-culture of MCF-7 cells and M. hyorhinis was maintained under the same conditions as the uninfected MCF-7 cells. […] The cells were incubated for another 4 days, trypsinized and counted by a Coulter counter (Analis, Suarlée, Belgium).

MCF-7 cells = assay: Tumor cell proliferation assay, uninfected MCF-7 cells; format: cell-based, human; conditions: for Ratio (1)/(2) MCF-7: IC50 in the absence of TPi to IC50 in the presence of TPi; for IC50: uninfected MCF-7
[1] = Conversion of nucleosides in the medium of uninfected MCF-7 cells; format: biochemical, human; conditions: even after 24 hours of incubation; data not shown
Description: The TP activity of M. hyorhinis and the conversion of dThd, FdUrd, 5′DFUR and TFT to thymine, 5FU, 5FU or TF-thymine respectively were measured by high-pressure liquid chromatography (HPLC) analysis. MCF-7 and MCF-7/HYOR cells were seeded at a density of 20,000 cells/cm^2 in DMEM with 10% FBS. Four days later, the medium was collected and cleared by centrifugation at 1,400 rpm. For some experiments, the medium of MCF-7/HYOR cells was filtered using a 0.1 μm micro filter (Acrodisc syringe filter, PALL Corporation, East Hills, N.Y.) to remove the mycoplasmas from the medium. 600 μl of the medium was incubated with 200 μM of substrate (dThd, 5′DFUR, TFT or FdUrd) at 37° C. in the presence or absence of 10 μM TPi. […] Next, the samples were rapidly cooled on ice, exposed for 20 min to 200 μl ice-cold methanol and cleared by centrifugation at 15,000 rpm for 15 minutes. As a positive control, an enzyme activity assay with E. coli TP (Sigma) was performed. For this reaction, 0.025 U of TP were incubated with 200 μM of substrate in TP-buffer (10 mM Tris-HCl, pH 7.6, 1 mM EDTA, 2 mM potassium phosphate and 150 mM NaCl) in a total volume of 600 μl. Aliquots of 100 μl were withdrawn from the reaction mixture at several time points and treated as described above. The nucleosides were separated from their nucleobases on a reversed-phase RP-8 column (Merck, Darmstadt, Germany) and quantified by HPLC analysis (Aliance 2690, Waters, Milford, Mass.). The separation was performed by a linear gradient from 100% buffer B (50 mM NaH2PO4 and 5 mM heptane sulfonic acid, pH 3.2), to 20% buffer B and 80% acetonitrile. […] UV-based detection of all nucleosides was performed at 267 nm.

Structure (SMILES)	Ratio (1)/(2) MCF-7/HYOR (MCF-7/HYOR cells)	IC50 (MCF-7/HYOR cells; M. hyorhinis-infected MCF-7, no TPi, no plasmocin, read-out: IC50 MCF-7/HYOR As such) [nM]	IC50 (MCF-7/HYOR cells; M. hyorhinis-infected MCF-7, with 10 μM TPi, read-out: IC50 MCF-7/HYOR +TPi (10 μM)) [nM]	IC50 (MCF-7/HYOR cells; plasmocin 25 μg/ml, 1 day pretreatment, read-out: IC50 MCF-7/HYOR +plasmocin (25 μg/ml) 1 day prior to addition of test compounds) [nM]	IC50 (MCF-7/HYOR cells; plasmocin 25 μg/ml, 3 days pretreatment, read-out: IC50 MCF-7/HYOR +plasmocin (25 μg/ml) 3 days prior to addition of test compounds) [nM]	Ratio (1)/(2) MCF-7 (MCF-7 cells)	IC50 (MCF-7 cells; no TPi, 4 days, read-out: IC50 MCF-7 As such) [nM]	IC50 (MCF-7 cells; with 10 μM TPi, read-out: IC50 MCF-7 +TPi (10 μM)) [nM]	Conversion in the medium of uninfected MCF-7 cells [1]	IC50 (MCF-7/HYOR cells; Homo sapiens, MCF7, read-out: IC50 MCF-7/HYOR +TPi (10 μM)) [nM]	IC50 (MCF-7/HYOR cells; Homo sapiens, MCF7, read-out: IC50 MCF-7/HYOR As such) [nM]	IC50 (MCF-7/HYOR cells; Homo sapiens, MCF7, plasmocin 25 μg/ml, 1 day pretreatment, read-out: IC50 MCF-7/HYOR +plasmocin (25 μg/ml) 1 day prior to addition of test compounds) [nM]	IC50 (MCF-7/HYOR cells; Homo sapiens, MCF7, plasmocin 25 μg/ml, 3 days pretreatment, read-out: IC50 MCF-7/HYOR +plasmocin (25 μg/ml) 3 days prior to addition of test compounds) [nM]	IC50 (MCF-7 cells; Homo sapiens, MCF7, 96 h, no TPi, 4 days, read-out: IC50 MCF-7 As such) [nM]	IC50 (MCF-7 cells; Homo sapiens, MCF7, with 10 μM TPi, read-out: IC50 MCF-7 +TPi (10 μM)) [nM]
O=c1[nH]c(=O)n([C@H]2C[C@H](O)[C@@H](CO)O2)cc1C(F)(F)F [TFT, 5-trifluorothymidine]	33	6000 ± 3190	180 ± 70	450 ± 90	190 ± 60	1.8	390 ± 120	210 ± 110	no conversion	–	–	–	–	–	–
O=c1[nH]c(=O)n([C@H]2C[C@H](O)[C@@H](CO)O2)cc1F [FdUrd, 5-fluoro-2′-deoxyuridine]	140	–	–	–	–	1.0	–	–	no conversion	3 ± 1	420 ± 180	18 ± 2.2	3 ± 1	3 ± 2	3 ± 2
